Experimental data: patent US9849146B2, “Inhibition of nonsense mediated mRNA decay by drugs that prevent hypusination of eukaryotic initiation factor 5A” (RUTGERS, THE STATE UNIVERSITY OF NEW JERSEY, priority 2009, dated 2017)
“Also recorded” adds a separate entry of the source.

How the values were obtained:
DOHH = biological target: T1, DOHH (Homo sapiens, UniProt Q9BU89); experiment: Immunoblot of eIF5A modification (maturation) in 293T cells transfected with FLAG-tagged eIF5A; assay type: cell-based; details: for concentration range reducing the appearance of mature eIF5A: FLAG-eIF5A, NIH-353 immunoblot
T1 construct: endogenous in cells; host or cells: 293T cells
T1 sequence (Q9BU89 1-302): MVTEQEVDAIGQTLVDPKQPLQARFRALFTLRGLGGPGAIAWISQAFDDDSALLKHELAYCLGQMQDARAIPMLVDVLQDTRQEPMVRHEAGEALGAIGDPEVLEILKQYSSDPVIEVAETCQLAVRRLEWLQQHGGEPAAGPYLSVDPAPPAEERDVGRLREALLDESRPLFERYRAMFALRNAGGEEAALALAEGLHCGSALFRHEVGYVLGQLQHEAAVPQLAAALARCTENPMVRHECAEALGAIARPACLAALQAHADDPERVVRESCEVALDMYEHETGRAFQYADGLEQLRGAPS
Text: To examine the effect of compounds on the synthesis of modified eIF5A, 293T cells transfected with a FLAG-tagged eIF5A expression vector were simultaneously treated with ciclopirox (“CPX”) or deferiprone (“DEF”).
FLAG-eIF5A was monitored using NIH-353 and anti-FLAG antibodies (FIGS. 2A and 2B). FIG. 2A illustrates inhibition of eIF5A modification in 293T cells. Cells transfected with FLAG-tagged eIF5A were untreated or treated with increasing concentrations of CPX as indicated, or with agent P2. FIG. 2B illustrates cells transfected with FLAG-tagged eIF5A that were untreated or treated with increasing concentrations of DEF as indicated, or with DFOX. At 24 hours post-transfection, whole cell extract (“WCE”) was analyzed by immunoblotting with the NIH-353 anti-eIF5A antibody (upper panel) and anti-actin antibody (lower panel). The […] antibody reacts preferentially with post-translationally modified eIF5A. CPX reduced the appearance of mature eIF5A over the 3-30 μM concentration range, while DEF was effective at 200-400 μM. […] In addition to the CPX homolog Agent P2, deferoxamine (“DFOX”; Desferal™) was used as a control compound. DFOX, a metal-binding hydroxamate like CPX and Agent P2 (FIG. 3), is a globally used medicinal iron chelator.
FIG. 2C illustrates cells transfected with FLAG-tagged eIF5A that were treated with CPX (30 μM), P2 (30 μM), DEF (250 μM), DFOX (10 μM), or no compound (-). At 24 hours post transfection, WCE was analyzed by immunoblotting with the NIH-353 anti-eIF5A antibody (upper panel) and anti-FLAG antibody (lower panel). The control culture was transfected with empty vector and no compound was added.

[1] = cited from earlier work
eIF5A:DHS complexes = biological target: T2, eIF5A:DHS complexes (Homo sapiens, UniProt P49366); experiment: Co-immunoprecipitation of endogenous eIF5A with FLAG-DHS from transfected 293T cells; assay type: cell-based; details: FLAG-DHS transfected 293T cells; GC7 10 μM, CPX 30 μM, DEF 250 μM
T2 construct: expressed in transfected cells; host or cells: 293T cells (FLAG-DHS transfected; eIF5A endogenous)
T2 sequence (P49366 1-369): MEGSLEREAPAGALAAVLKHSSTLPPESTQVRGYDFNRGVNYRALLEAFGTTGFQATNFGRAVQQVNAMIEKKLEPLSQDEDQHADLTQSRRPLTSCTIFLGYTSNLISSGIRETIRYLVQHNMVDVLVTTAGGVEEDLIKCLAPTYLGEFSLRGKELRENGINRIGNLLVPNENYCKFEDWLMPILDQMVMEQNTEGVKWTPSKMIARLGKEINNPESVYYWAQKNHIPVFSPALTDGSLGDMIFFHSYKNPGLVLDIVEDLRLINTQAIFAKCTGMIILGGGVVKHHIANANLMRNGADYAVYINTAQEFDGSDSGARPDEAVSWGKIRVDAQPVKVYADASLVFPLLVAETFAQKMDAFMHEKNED
Procedure: (§1) FIG. 2E illustrates 293T cells transfected with FLAG-DHS, FLAG-DOHH or empty vector (control) were treated with GC7, CPX, or DEF, or no drug (-) at the same concentration as in FIG. 2D. Immunoprecipitates obtained with anti-FLAG antibody were immunoblotted and probed with anti-eIF5A antibody (BD). WCE equivalent to 5% of the input was immunoblotted as a further control. Reciprocally, the interaction between endogenous eIF5A and tagged DOHH was inhibited by CPX and DEF (FIG. 2E, right). Similarly, the interaction of endogenous eIF5A with tagged DHS was inhibited by GC7 (FIG. 2E, left), but was resistant to CPX and DEF (not shown).

eIF5A:DOHH complex = biological target: T3, eIF5A:DOHH complex (Homo sapiens, UniProt Q9BU89); experiment: Co-immunoprecipitation of the eIF5A:DOHH complex from transfected 293T cells; assay type: cell-based; details: CPX 30 μM, DEF 250 μM; for interaction between endogenous eIF5A and tagged DOHH: FLAG-DOHH transfected 293T cells; for association of endogenous DOHH with FLAG-eIF5A (co-immunoprecipitation): GC7 10 μM, P2 30 μM, DFOX 10 μM, 24 hours post-transfection
T3 construct: Endogenous DOHH co-immunoprecipitated with FLAG-eIF5A; expressed in transfected cells; host or cells: 293T cells (FLAG-eIF5A transfected; DOHH endogenous)
T3 sequence (Q9BU89 1-302): T1 sequence (Q9BU89 1-302)
Procedure: Unmodified eIF5A (lysine-50) immunoprecipitates with DHS, and deoxyhypusyl-eIF5A interacts with DOHH in vitro. The deoxyhypusyl-eIF5A:DOHH complex formed in vivo can be detected by immunoprecipitation from cell extracts. Taking advantage of this finding, the effects of the compounds on the enzyme-substrate interaction was tested, the results of which are illustrated in FIG. 2D. FLAG-eIF5A was expressed in 293T cells. 293T cells transfected with FLAG-eIF5A were untreated (-) or treated with GC7 (10 μM) or CPX (30 μM), P2 (30 μM), DEF (250 μM), or DFOX (10 μM). WCE prepared at 24 hours post-transfection was immunoprecipitated with anti-FLAG antibody. Complexes that immunoprecipitated with anti-FLAG antibody were immunoblotted and probed with antibodies against DOHH. […] As a further control, the DHS inhibitor GC7 was included in this assay. […] As expected, none of the compounds affected the immunoprecipitation of FLAG-eIF5A (FIG. 2D, middle panel; note that the band marked with an asterisk (*) is background due to IgG light chain) or the expression of endogenous eIF5A (FIG. 2D, bottom panel).
as §1

NMD = NMD luciferase reporter assay with vectors containing NMD signals associated with β039-thalassemia; assay type: cell-based; details: for submaximal effect of the NMD inhibitor when combined with nonsense suppressor G418: 15 μM CPX, 125 μM DEF, 200 μM HYD, G418 at 800 μM; for drug concentrations at which inhibition of NMD is seen: dose-dependent; for NMD in the thalassemia model system: ratio of Renilla luciferase from NMD-sensitive reporter to matched NMD-insensitive control
Procedure: The experiment of FIG. 5 used RNA silencing with small interfering RNAs (siRNAs) to deplete eIF5A itself, or either of the modifying enzymes required for hypusine formation. […] Data are shown as ratio of luciferase activities.
These experiments were carried out in the well-authenticated assay system using vectors containing NMD signals associated with β^039-thalassemia (Woeller C F, Gaspari M, Isken O, Maquat L.: EMBO Rep. 2008 May; 9(5):446-51).

[2] = 293T cells, 24 hours post-transfection

| concentration range reducing the appearance of mature eIF5A (DOHH; [2]) | interaction of endogenous eIF5A with tagged DHS (eIF5A:DHS complexes) | interaction between endogenous eIF5A and tagged DOHH (eIF5A:DOHH complex) | submaximal effect of the NMD inhibitor when combined with nonsense suppressor G418 (NMD) | NMD in the thalassemia model system (NMD) | SMILES | association of endogenous DOHH with FLAG-eIF5A (co-immunoprecipitation) (eIF5A:DOHH complex) | drug concentrations at which inhibition of NMD is seen (NMD; thalassemia model system) | other results |
| --- | --- | --- | --- | --- | --- | --- | --- | --- |
| 3 to 30 µM | resistant | inhibited | distinctly enhanced | inhibited | Cc1cc(C2CCCCC2)n(O)c(=O)c1 [CPX, ciclopirox] | largely prevented; also recorded: destabilized | 15/30 | levels in skin ([1]; topical preparations containing up to 57.5 mM): > 30 µM |
| 200 to 400 µM | resistant | inhibited | distinctly enhanced | inhibited | Cc1c(O)c(=O)ccn1C [DEF, deferiprone] | largely prevented; also recorded: destabilized | 125/250 | concentration in serum ([1]; after oral medication): ≥ 250 µM; NMD inhibition by single compound (NMD; DEF at 125 μM, HYD at 200 μM, each alone): ineffective individually |
|  |  |  |  |  | CN[C@@H]1[C@@H](O)[C@@H](O[C@@H]2[C@@H](O)[C@H](O[C@H]3O[C@H]([C@@H](C)O)[C@@H](O)[C@H](O)[C@H]3N)[C@@H](N)C[C@H]2N)OC[C@]1(C)O [G418] |  |  | effect on expression (nonsense suppressor, for comparison) (NMD; thalassemia model system): expression-enhancing effect |
|  |  |  |  |  | NNc1nncc2ccccc12 [HYD, hydralazine] |  | 200/400 |  |
|  |  |  |  |  | Cc1ccn(O)c(=O)c1 [P2] | neither P2 or DFOX prevented; also recorded: Neither DFOX nor P2 had any effect |  | activity in cell-based assays (DOHH): little or no activity; effect on the appearance of mature FLAG-eIF5A (DOHH; 293T cells, 24 hours post-transfection, control compounds): little or no effect |

| SMILES | concentration range reducing the appearance of mature eIF5A (DOHH; [2]) | interaction of endogenous eIF5A with tagged DHS (eIF5A:DHS complexes) | interaction between endogenous eIF5A and tagged DOHH (eIF5A:DOHH complex) | submaximal effect of the NMD inhibitor when combined with nonsense suppressor G418 (NMD) | NMD in the thalassemia model system (NMD) | association of endogenous DOHH with FLAG-eIF5A (co-immunoprecipitation) (eIF5A:DOHH complex) | drug concentrations at which inhibition of NMD is seen (NMD; thalassemia model system) | other results |
| --- | --- | --- | --- | --- | --- | --- | --- | --- |
| NCCCCCCCN=C(N)N [GC7] |  | inhibited; also recorded: blocked formation |  |  |  | No DOHH was associated with FLAG-eIF5A |  |  |
